In experiment [1] the target is c-Cbl (Homo sapiens (Human), UniProt P22681). Description: C-Cbl LCK Ub TR-FRET assay (C-cbl Lck HTRF). Type of experiment: biochemical. The method in brief: (§1)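 After the ubiquitination reaction, detection mixture was added and plates incubated 20 min at room temperature before reading. IC50 values were calculated with wells lacking LCK as the low control and DMSO as the high control.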

For experiment [2], the target named is c-Cbl (residues 47-435) (Homo sapiens (Human), UniProt P22681). Description: c-Cbl SPR assay. Type of experiment: binding. To be noted: 20° C. Put shortly:
(§2)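 Binding was measured by SPR and fitted to a 1:1 model from multi-cycle kinetics with double referencing, 6 concentrations in 2-fold dilution. Alternatively, single-cycle titrations up to 500 nM (120 s contact) were fitted with kd fixed from a single-exponential fit of chaser-measured % compound bound versus time.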

The target in experiment [3] is Human Cbl-b (residues 40-426) (Homo sapiens (Human), UniProt Q13191). Description: Cbl-b SPR assay. Type of experiment: binding. To be noted: for Fold of selectivity: C-cbl SPR Kd vs Cbl-b SPR Kd; for Kd: SPR, 20° C. The method in brief: as §2
Chain of Human Cbl-b (residues 40-426) (Q13191 40-426): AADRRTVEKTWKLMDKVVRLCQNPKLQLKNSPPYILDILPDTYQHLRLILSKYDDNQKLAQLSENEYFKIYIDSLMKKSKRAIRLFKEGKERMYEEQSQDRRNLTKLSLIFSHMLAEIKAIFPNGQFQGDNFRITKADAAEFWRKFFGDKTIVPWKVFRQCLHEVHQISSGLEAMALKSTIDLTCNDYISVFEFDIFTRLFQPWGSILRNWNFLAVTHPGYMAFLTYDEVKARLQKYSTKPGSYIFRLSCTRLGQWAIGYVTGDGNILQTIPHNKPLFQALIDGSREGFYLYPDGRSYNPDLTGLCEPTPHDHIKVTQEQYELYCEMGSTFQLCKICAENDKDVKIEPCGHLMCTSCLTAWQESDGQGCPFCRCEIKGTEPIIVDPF
(In general: Surface plasmon resonance follows binding to a sensor surface in real time, without labels.)

Experiment [4] deals with Cbl-b (Homo sapiens (Human), UniProt Q13191). Briefly: Cbl-b LCK Ub TR-FRET assay (Cbl-b Lck HTRF). To be noted: for IC50: Cbl-b LCK Ub TR-FRET; for fold-selectivity (Cbl-b over C-cbl): ratio C-cbl Lck HTRF IC50 / Cbl-b Lck HTRF IC50. Type of experiment: biochemical. Put shortly: as §1
Chain of Cbl-b (Q13191 40-426): as above
For orientation: Time-resolved FRET reads energy transfer from a long-lived donor to a nearby acceptor.

Chain of c-Cbl (P22681 47-435): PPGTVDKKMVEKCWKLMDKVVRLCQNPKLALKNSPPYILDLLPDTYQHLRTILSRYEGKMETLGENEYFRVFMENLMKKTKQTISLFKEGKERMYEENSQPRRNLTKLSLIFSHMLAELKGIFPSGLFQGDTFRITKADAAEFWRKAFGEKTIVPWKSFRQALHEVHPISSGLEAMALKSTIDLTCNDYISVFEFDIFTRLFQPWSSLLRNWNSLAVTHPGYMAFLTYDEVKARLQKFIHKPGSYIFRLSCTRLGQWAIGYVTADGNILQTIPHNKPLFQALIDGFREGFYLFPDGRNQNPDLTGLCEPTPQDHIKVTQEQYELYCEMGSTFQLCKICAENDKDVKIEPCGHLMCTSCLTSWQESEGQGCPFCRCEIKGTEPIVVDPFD
Chain of c-Cbl (residues 47-435) (P22681 47-435): as above

For `COc1cc([C@@H](c2nncn2C)C2COC2)cc(N2Cc3c(cc(CNC4(C)CCC4)cc3C(F)(F)F)C2=O)c1` (single isomer, unassigned) [Compound 339], the IC50 (as a rule, the concentration needed to halve the response being measured) in experiment [1] was 6.3 nM. For the same compound, the Kd (usually the equilibrium constant for the complex coming apart) in experiment [2] is 4.2 nM. In experiment [3], this compound showed a Fold of selectivity of 2.5× and a Kd of 1.7 nM. In experiment [4], the IC50 came to 5.6 nM and the “fold-selectivity (Cbl-b over C-cbl)” value came to 1.1x.
Consider `Cn1cnnc1[C@@H](c1cccc(N2Cc3c(cc(CNC4(C)CCC4)cc3C(F)(F)F)C2=O)c1)C1CC1` (single isomer, unassigned) [Compound 342], for which half-maximal inhibition in experiment [1] (IC50) required 6.6 nM. This compound also yielded a Kd in experiment [2] of 1.2 nM. Besides, in experiment [3], the Fold of selectivity was 2.4× and binding was characterised by a dissociation constant (Kd) of 0.5 nM. In experiment [4], it took 5.6 nM to reach half-maximal inhibition (IC50) and the “fold-selectivity (Cbl-b over C-cbl)” value worked out at 1.2x.
In experiment [1], `Cn1cnnc1[C@H](c1cccc(N2Cc3c(cc(CNC4(C)CCC4)cc3C(F)(F)F)C2=O)c1)C1CC1` (single isomer, unassigned) [Compound 343] returned an IC50 of 610 nM. This compound also yielded a Kd in experiment [2] of 2800 nM. Further, in experiment [3], the Fold of selectivity came out at 6.4× and the Kd came to 440 nM. Also, in experiment [4], the IC50 was determined as 290 nM and the “fold-selectivity (Cbl-b over C-cbl)” value is recorded as 2.1x.
On to `Cn1cnnc1[C@H](c1cccc(N2Cc3c(cc(CNC4(C)CCC4)cc3C(F)(F)F)C2=O)c1)n1ccnc1` (single isomer, unassigned) [Compound 345], for which the IC50 worked out at 11000 nM in experiment [1] and 2400 nM in experiment [4]. The Kd in experiment [2] worked out at 4100 nM; in experiment [3], 1300 nM. Moreover, the Fold of selectivity in experiment [3] was 3×. Moreover, in experiment [4], the “fold-selectivity (Cbl-b over C-cbl)” value came to 4.4x.
Consider `Cn1nnnc1[C@@H](c1cccc(N2Cc3c(cc(CNC4(C)CCC4)cc3C(F)(F)F)C2=O)c1)C1COC1` (single isomer, unassigned) [Compound 348], for which the IC50 was 500 nM in experiment [1] and 140 nM in experiment [4]. Besides, the Kd in experiment [2] was determined as 630 nM; in experiment [3], 75 nM. This compound displayed a Fold of selectivity in experiment [3] of 8.4×. Besides, the “fold-selectivity (Cbl-b over C-cbl)” value in experiment [4] came out at 3.5x.
`Cn1cnnc1C1(c2cccc(N3Cc4c(cc(CNC5(C)CCC5)cc4C(F)(F)F)C3=O)c2)CC(OC(F)(F)F)C1` (single isomer, unassigned) [Compound 351, 2-(3-((1r,3r)-1-(4-methyl-4H-1,2,4-triazol-3-yl)-3-(trifluoromethoxy)cyclobutyl)phenyl)-6-(((1-methylcyclobutyl)amino)methyl)-4-(trifluoromethyl)isoindolin-1-one] came in with an IC50 in experiment [1] of 20 nM. In experiment [2], this compound came in with a Kd of 19 nM. In experiment [3], this compound yielded a Fold of selectivity of 16× and a Kd of 1.2 nM. Further, in experiment [4], half-maximal inhibition (IC50) was put at 6.4 nM and the “fold-selectivity (Cbl-b over C-cbl)” value is 6.4x.
In experiment [1], `Cn1ccnc1[C@@H](c1cccc(N2Cc3c(cc(CNC4(C)CCC4)cc3C(F)(F)F)C2=O)c1)C1COC1` (single isomer, unassigned) [Compound 352] came in with an IC50 of 280 nM. The compound further came in with a Kd in experiment [2] of 270 nM. In experiment [3], this compound gave a Fold of selectivity of 7.6× and a Kd of 34 nM. In addition, in experiment [4], it took 69 nM to reach half-maximal inhibition (IC50) and the “fold-selectivity (Cbl-b over C-cbl)” value was determined as 4.1x.
Turning to `Cn1cnnc1C(c1cccc(N2Cc3c(cc(CNC4(C)CCC4)cc3C(F)(F)F)C2=O)c1)[C@H]1C[C@H](Cl)C1` (single isomer, unassigned) [Compound 356], the IC50 in experiment [1] is 180 nM; in experiment [4] it was 29 nM. In addition, the results for the Kd in experiment [2] and in experiment [3] were 210 nM and 19 nM, respectively. Besides, the Fold of selectivity in experiment [3] amounted to 11×. The “fold-selectivity (Cbl-b over C-cbl)” value in experiment [4] was 6.1x.
Compound `Cn1cnnc1C(c1cccc(N2Cc3c(cc(CNC4(C)CCC4)cc3C(F)(F)F)C2=O)c1)[C@H]1C[C@@H](Cl)C1` (single isomer, unassigned) [Compound 357] had an IC50 in experiment [1] of 7.1 nM. The compound further registered a Kd in experiment [2] of 2.2 nM. Moreover, in experiment [3], the Fold of selectivity is listed as 5.5× and binding was put at a Kd of 0.4 nM. In experiment [4], 5.2 nM corresponded to half-maximal inhibition (IC50) and the “fold-selectivity (Cbl-b over C-cbl)” value is recorded as 1.4x.
For the compound `CC[C@@H](c1cccc(N2Cc3c(Cl)cc(CNC4(C)CCC4)cc3C2=O)c1)c1nncn1C` (single isomer, unassigned) [Compound 359], the midpoint of inhibition in experiment [1], the IC50, lay at 4.1 nM. Further, the Kd in experiment [2] is 0.82 nM. In experiment [3], this compound yielded a Fold of selectivity of 2.1× and a Kd of 0.4 nM. Besides, in experiment [4], the midpoint of inhibition, the IC50, lay at 4.8 nM and the “fold-selectivity (Cbl-b over C-cbl)” value worked out at 0.85x.
Turning to `CO[C@H]1C[C@](c2cccc(N3Cc4c(cc([C@H](N)C(C)(C)C)cc4C(F)(F)F)C3=O)c2)(c2nncn2C)C1` (single isomer, unassigned) [Compound 360], the IC50 in experiment [1] is 590 nM. The Kd in experiment [2] came out at 840 nM. In experiment [3], this compound displayed a Fold of selectivity of 10× and a Kd of 84 nM. Further, in experiment [4], the IC50 was 92 nM and the “fold-selectivity (Cbl-b over C-cbl)” value was 6.4x.
Consider `CO[C@H]1C[C@](c2cccc(N3Cc4c(cc([C@@H](N)C(C)(C)C)cc4C(F)(F)F)C3=O)c2)(c2nncn2C)C1` (single isomer, unassigned) [Compound 361], for which the IC50 in experiment [1] turned out to be 36 nM. The same compound displayed a Kd in experiment [2] of 84 nM. In experiment [3], this compound yielded a Fold of selectivity of 21× and a Kd of 4 nM. For the same compound, in experiment [4], the IC50 stood at 8.1 nM and the “fold-selectivity (Cbl-b over C-cbl)” value stood at 4.4x.
In turn, `Cn1cnnc1C(c1cccc(N2Cc3c(cc(CNC4(C)CCC4)cc3C(F)(F)F)C2=O)c1)[C@H]1C[C@@H](CC#N)C1` (single isomer, unassigned) [Compound 362] came in with a 50% inhibitory concentration (IC50) in experiment [1] of 38 nM. The Kd in experiment [2] was found to be 59 nM. Besides, in experiment [3], the Fold of selectivity is 21× and the Kd came out at 2.9 nM. Moreover, in experiment [4], it took 6 nM to reach half-maximal inhibition (IC50) and the “fold-selectivity (Cbl-b over C-cbl)” value is given as 6.3x.
Regarding `Cn1cnnc1C(c1cccc(N2Cc3c(cc(CNC4(C)CCC4)cc3C(F)(F)F)C2=O)c1)[C@H]1C[C@H](CC#N)C1` (single isomer, unassigned) [Compound 363], the IC50 in experiment [1] is 140 nM; in experiment [4] it was 61 nM. In addition, the figures for the Kd in experiment [2] and in experiment [3] were 280 nM and 78 nM, respectively. Moreover, the Fold of selectivity in experiment [3] is given as 3.6×. Also, the “fold-selectivity (Cbl-b over C-cbl)” value in experiment [4] was determined as 2.3x.
As for `Cn1cnnc1C(c1cccc(N2Cc3c(cc(CNC4(C)CCC4)cc3C(F)(F)F)C2=O)c1)[C@H]1C[C@H](CC#N)C1` (single isomer, unassigned) [Compound 364], in experiment [1], the IC50 stood at 3.3 nM. The compound further registered a Kd in experiment [2] of 2.4 nM. In experiment [3], this compound displayed a Fold of selectivity of 4.4× and a Kd of 0.55 nM. In experiment [4], the IC50 was determined as 2.5 nM and the “fold-selectivity (Cbl-b over C-cbl)” value was 1.3x.
Regarding `Cn1cnnc1C(c1cccc(N2Cc3c(cc(CNC4(C)CCC4)cc3C(F)(F)F)C2=O)c1)[C@H]1C[C@@H](CC#N)C1` (single isomer, unassigned) [Compound 365], it took 5.9 nM to reach half-maximal inhibition in experiment [1] (IC50). For the same compound, in experiment [2], the Kd came out at 7.2 nM. In experiment [3], this compound registered a Fold of selectivity of 6× and a Kd of 0.85 nM. In experiment [4], inhibition was half-maximal at 4.8 nM (IC50) and the “fold-selectivity (Cbl-b over C-cbl)” value is given as 1.2x.
Take `CO[C@H]1C[C@@](O)(C(c2cccc(N3Cc4c(cc(CNC5(C)CCC5)cc4C(F)(F)F)C3=O)c2)c2nncn2C)C1` (single isomer, unassigned) [Compound 369]: the results for the IC50 in experiment [1] and in experiment [4] were 1000 nM and 240 nM, respectively. Besides, the figures for the Kd in experiment [2] and in experiment [3] were 1500 nM and 210 nM, respectively. This compound showed a Fold of selectivity in experiment [3] of 7.2×. In experiment [4], the “fold-selectivity (Cbl-b over C-cbl)” value is on record as 4.3x.
Compound `Cn1cnnc1[C@H](c1cccc(N2Cc3c(cc(CNC4(C)CCC4)cc3C(F)(F)F)C2=O)c1)[C@H]1C[C@H](C)C1` (single isomer, unassigned) [Compound 376, 2-(3-((S)-(4-methyl-4H-1,2,4-triazol-3-yl)((1r,3S)-3-methylcyclobutyl)methyl)phenyl)-6-(((1-methylcyclobutyl)amino)methyl)-4-(trifluoromethyl)isoindolin-1-one] gave an IC50 in experiment [1] of 490 nM. Further, the Kd in experiment [2] is 790 nM; in experiment [3], 46 nM. In experiment [3], this compound came in with a Fold of selectivity of 16×. Besides, in experiment [4], the “fold-selectivity (Cbl-b over C-cbl)” value is on record as 9.0x.
On to `Cn1cnnc1[C@H](c1cccc(N2Cc3c(cc(CNC4(C)CCC4)cc3C(F)(F)F)C2=O)c1)[C@H]1C[C@@H](C)C1` (single isomer, unassigned) [Compound 377], for which the IC50 stood at 2500 nM in experiment [1] and 240 nM in experiment [4]. In addition, the Kd came to 2600 nM in experiment [2] and 240 nM in experiment [3]. Also, the Fold of selectivity in experiment [3] is recorded as 11×. In addition, in experiment [4], the “fold-selectivity (Cbl-b over C-cbl)” value is 11x.
In experiment [1], `Cn1cnnc1[C@@H](c1cccc(N2Cc3c(cc(CNC4(C)CCC4)cc3C(F)(F)F)C2=O)c1)[C@H]1C[C@H](C)C1` (single isomer, unassigned) [Compound 378] came in with an IC50 of 56 nM. The same compound returned a Kd in experiment [2] of 96 nM. Besides, in experiment [3], the Fold of selectivity is recorded as 14× and the Kd was 6.9 nM. In experiment [4], half-maximal inhibition (IC50) was put at 9.4 nM and the “fold-selectivity (Cbl-b over C-cbl)” value came to 6.0x.

Values taken from US12187709B2 (Genentech, Inc., priority 2021, dated 2025).
